Assay type in all cases: cell-based
Assay [1] relates to wide-type HIV-1 (strain IIIB). Briefly: Anti-HIV-1 activity in MT-4 cells (MTT method), wild-type. On the procedure: (§1) Selected compounds were screened for inhibitory activity against HIV-1 using MTT method as describe previously by Christophe. Pannecouque et al. Nat. Protoc. 3 (2008) 427-434, and Rudi Pauwels et al. J. Virol. Methods 20 (1988) 309-321. Briefly, MT-4 cells infected with HIV-1 can only survive for 5 to 7 days without any treatment, but when HIV-1 inhibitors were added, they can protect MT-4 cell from cytopathic. Serial solution of compounds was added to MT-4 cells after infected with HIV-1, MTT method was used to detect the survival rate after culture for 5 to 7 days. EC50 value was defined as compound concentration required to achieve 50% protection of MT-4 cells against HIV-1-induced cytopathic effect. In vitro anti-HIV-1 assay was supported by Rega Institute for Medical Research.
(§2) • (1) MT-4 cells infected with HIV-1 viral strains (IIIB, L100I, K103N, Y181C, Y188L, E138K, F227L/V106A, Y181C/K103N) were provided by Rega Institute for Medical Research, Katholieke Universiteit Leuven, Belgium. • (2) MTT and formazan: sigma Chemical Co. • (3) Preparation of compounds: Stock solutions (10×final concentration) of test compounds is diluted with double distilled water for 5 folds and 5 concentrations of one compound are prepared. • (4) Reference drugs: Nevirapine (NVP), Efavirenz (EFV), Etravirine (ETV), Rilpivirine (RPV) and Azidothymidine (AZT). • (5) Method (MTT method): Serial five-fold dilutions of test compounds were added to cultured MT-4 cells infected with HIV-1, after 5 to 7 days, MTT was added and cultured for a few hours. Medium was removed and lysate was added followed by formazan, OD value was determined in 690 nm and 540 nm by microplate reader, and EC50 value was calculated. 2. Method
(§3) The MTT method was described briefly as follows: 96-well plastic microtiter trays were filled with 100 μL of complete medium. Subsequently, serial of tested compounds was added (25 μL) to two series of triplicate wells so as to allow simultaneous evaluation of their effects on HIV- and mock infected cells. 50 μL of 1×10^4 cells/mL MT-4 cells were added. After cultured for 5 days at 37° C. in humidified atmosphere in the presence of 5% CO2, MTT was added and cultured for another 2 h, then medium was removed and 100 μL isopropanol solution was added to lyse the cells. Formazan crystals were added and vibrated platform shaker for 10 min to solubilize the formazan crystals. Absorbances at 690 nm and 540 nm were read by using spectrophotometrically. EC50 was defined as the concentration achieving 50% protection from the cytopathic effect of the virus in infected cells.
(§4) Selected compounds prepared as described above were assayed in MT-4 cells infected with wide-type IIIB, L100I, K103N, Y181C, Y188L, E138K or double mutant RES056 (Y181C/K103N) and F227L/V106A HIV-1 strains. Nevirapine, Efavirenz, Etravirine, Rilpivirine and Azidothymidine were selected as reference drugs. The results were listed below as EC50 value (nM)
(Formazan colour is commonly taken as a measure of viable cells.)

For assay [2], the system named is HIV-1 L100I mutant strain. Briefly: Anti-HIV-1 activity in MT-4 cells (MTT method), L100I. The following applies: for EC50: Human immunodeficiency virus 1, MT4, read-out: EC50 (nM) L100I. On the procedure: as §1, §2, §3, §4
Assay [3] has as its system HIV-1 K103N mutant strain. Briefly: Anti-HIV-1 activity in MT-4 cells (MTT method), K103N. The following applies: for EC50: Human immunodeficiency virus 1, MT4, read-out: EC50 (nM) K103N. As for the experimental part: as §1, §2, §3, §4
Assay [4] deals with HIV-1 Y181C mutant strain. As to the kind of experiment: Anti-HIV-1 activity in MT-4 cells (MTT method), Y181C. The following applies: for EC50: Human immunodeficiency virus 1, MT4, read-out: EC50 (nM) Y181C. On the procedure: as §1, §2, §3, §4
The test system of assay [5] is HIV-1 Y188L mutant strain. As to the kind of experiment: Anti-HIV-1 activity in MT-4 cells (MTT method), Y188L. Conditions: for EC50: Human immunodeficiency virus 1, MT4, read-out: EC50 (nM) Y188L. As for the experimental part:
as §1, §2, §3, §4

Assay [6] has as its system HIV-1 E138K mutant strain. As to the kind of experiment: Anti-HIV-1 activity in MT-4 cells (MTT method), E138K. Conditions: Human immunodeficiency virus 1, MT4, read-out: EC50 (nM) E138K. As for the experimental part:
as §1, §2, §3, §4

The subject of assay [7] is HIV-1 F227L/V106A double mutant strain. As to the kind of experiment: Anti-HIV-1 activity in MT-4 cells (MTT method), F227L/V106A. Conditions: for EC50: Human immunodeficiency virus 1, MT4, read-out: EC50 (nM) F227L/V106A. On the procedure:
as §1, §2, §3, §4

The subject of assay [8] is HIV-1 double mutant RES056 (Y181C/K103N). Briefly: Anti-HIV-1 activity in MT-4 cells (MTT method), RES056. The following applies: for EC50: Human immunodeficiency virus 1, MT4, read-out: EC50 (nM) Y181C/K103N. As for the experimental part: as §1, §2, §3, §4
[9] abbreviates: Human immunodeficiency virus 1, IIIB, MT4, read-out: EC50 (nM) wt.

Like-named read-outs stand apart in the source and are kept apart here.

As for `O=C1Nc2ccc(Cl)cc2[C@@](C#CC2CC2)(C(F)(F)F)O1` [EFV, Efavirenz, reference compound], the EC50 is under 10 nM in assay [1] (Human immunodeficiency virus 1, MT4, MT-4 cells, 50% protection against HIV-1-induced cytopathicity, wt (IIIB), read-out: EC50 (nM) wt); 10 to 100 nM in assay [2]; 10 to 100 nM in assay [3]; under 10 nM in assay [4]; 10 to 100 nM in assay [5]; under 10 nM in assay [6]. The EC50 in assay [7] was 10 to 100 nM; in assay [8] it was over 100 nM.
Consider `Cc1cc(/C=C/C#N)cc(C)c1Oc1nc(NC2CCN(Cc3ccc(S(N)(=O)=O)cc3)CC2)nc2c1SCCC2` [IIA-1-3, (E)-4-((4-((4-(4-(2-cyanovinyl)-2,6-dimethylphenoxy)-7,8-dihydro-6H-thiopyrano[3,2-d]pyrimidin-2-yl)amino)piperidin-1-yl)methyl)benzenesulfonamide], for which the EC50 in assay [1] (setting [9]) is under 10 nM; in assay [2] it was under 10 nM; in assay [3] it was under 10 nM; in assay [4], under 10 nM; in assay [5] it was 10 to 100 nM; in assay [6], 10 to 100 nM. Moreover, the EC50 was under 10 nM in assay [7] and 10 to 100 nM in assay [8]. Moreover, in assay [2] (L100I, relative to ETV), the “fold more potent than ETV against L100I” value is given as 2 fold. The “Activity against K103N compared with ETV” value in assay [3] (K103N, relative to ETV) was “comparable”. The “fold more potent than ETV against Y181C” value in assay [4] (Y181C, relative to ETV) is reported as 2 fold. The “Activity against Y188L compared with ETV” value in assay [5] (Y188L, relative to ETV) was “comparable”. Besides, in assay [7] (F227L/V106A, relative to ETV), the “fold more potent than ETV against F227L/V106A” value amounted to 2 fold. Moreover, the “fold more potent than ETV against Y181C/K103N” value in assay [8] (Y181C/K103N, relative to ETV) is 2 fold.
Regarding `CCOC(=O)c1ccc(CN2CCC(Nc3nc4c(c(Oc5c(C)cc(C#N)cc5C)n3)SCCC4)CC2)cc1` [IIA-1-10, ethyl 4-((4-((4-(4-cyano-2,6-dimethylphenoxy)-7,8-dihydro-6H-thiopyrano[3,2-d]pyrimidin-2-yl)amino)piperidin-1-yl)methyl)benzoate], the EC50 in assay [1] (setting [9]) is 10 to 100 nM; in assay [2], over 100 nM; in assay [3] it was 10 to 100 nM; in assay [4], over 100 nM; in assay [5], over 100 nM; in assay [6], over 100 nM. Further, the EC50 in assay [7] and in assay [8] was over 100 nM each time.
As to `Cc1cc(C#N)cc(C)c1Oc1nc(Nc2ccc(C#N)cc2)nc(N)c1Br` [ETV, Etravirine, reference compound], the EC50 was under 10 nM in assay [1] (setting [9]); under 10 nM in assay [2]; under 10 nM in assay [3]; 10 to 100 nM in assay [4]; 10 to 100 nM in assay [5]; 10 to 100 nM in assay [6]. The EC50 in assay [7] and in assay [8] was 10 to 100 nM throughout.
Consider `Cc1cc(C#N)cc(C)c1Oc1nc(NC2CCN(c3cccc(C(N)=O)c3)CC2)nc2c1SCCC2` [IIC-1-2, 3-(4-((4-(4-cyano-2,6-dimethylphenoxy)-7,8-dihydro-6H-thiopyrano[3,2-d]pyrimidin-2-yl)amino)piperidin-1-yl)benzamide], for which the EC50 is under 10 nM in assay [1] (setting [9]); 10 to 100 nM in assay [2]; under 10 nM in assay [3]; under 10 nM in assay [4]; under 10 nM in assay [5]; 10 to 100 nM in assay [6]. Moreover, the EC50 is over 100 nM in assay [7] and 10 to 100 nM in assay [8].
With `Cc1cc(C#N)cc(C)c1Oc1nc(NC2CCN(Cc3cccc(S(N)(=O)=O)c3)CC2)nc2c1SCCC2` [IIA-1-4, 3-((4-((4-(4-cyano-2,6-dimethylphenoxy)-7,8-dihydro-6H-thiopyrano[3,2-d]pyrimidin-2-yl)amino)piperidin-1-yl)methyl)benzenesulfonamide], the EC50 in assay [1] (setting [9]) was under 10 nM; in assay [2], over 100 nM; in assay [3], 10 to 100 nM; in assay [4] it was 10 to 100 nM; in assay [5], 10 to 100 nM; in assay [6] it was 10 to 100 nM. The figures for the EC50 in assay [7] and in assay [8] were 10 to 100 nM and over 100 nM, respectively.

The values are drawn from patent US10590145B2, “Tetrahydrothiopyranopyrimidine derivatives as anti-HIV agent” (SHANDONG UNIVERSITY, priority 2016, dated 2020).
